Test system: IL-4 mRNA in LN cells
Assay: IL-4 mRNA by real-time PCR in LN cells of GA-immunized CD-1, BALB/cByJ, SJL/J mice (Example III)
Format: cell-based, mouse
Conditions: 6 hours
Procedure: On Day 0, mice were immunized with 250 μg GA (GMA, Mylan Pharmaceuticals, Inc.) and CFA. The GA solution (20 mg/mL) was diluted with Dulbecco's Phosphate-Buffered Saline to 5 mg/mL. The dosing formulation consisted of equal volumes of the diluted GA solution (5 mg/mL) and CFA solution, mixed until well-emulsified. Animals were weighed and allocated to groups. Animals were dosed by injection into four footpads. The injection volume per animal was 0.1 mL (about 10 μL into each front footpad, and 40 μL into each hind footpad).
Immunized animals were euthanized by cervical dislocation on Day 10 post-immunization. Lymph node cells were isolated from animals and treated with Myelin Basic Protein (MBP, a negative control), Concanavalin A (ConA, a positive control) or GA as shown in Table 16. Lymph nodes in the axillary and popliteal regions were removed aseptically in a purifier clean bench. […] The LN were then washed 3 times with −5 mL of RPMI medium, and isolated by pressing the LN with a syringe plunger. […] The cell suspension was centrifuged at about 200×g for 10 minutes at about 4° C. and re-suspended in ice cold enriched DCCM-1 medium. Cells were seeded in 96-well tissue culture plates.
LN cells isolated from GA-immunized animals were stimulated with GA (GMA, Mylan Pharmaceuticals, Inc.) at concentrations as indicated in Tables 16 and 17. A positive control was prepared by treating LN cells with 2.5 μg/mL concavalin A (ConA, a non-specific T cell stimulant). Myelin basic protein (MBP, 10 μg/mL) and enriched DCCM-1 medium served as negative controls. The cells from all groups each were stimulated with the same GA lot. Each reaction was set up in triplicate.
After incubation at about 37° C. in a humidified CO2 incubator for 6 hours, the cells were lysed for total RNA isolation. Total RNA was isolated from treated LN cells using SV 96 Total RNA Isolation System according to the manufacturer's protocol (Promega, Cat. #Z3500). Cells were washed once with Phosphate Buffered Saline (PBS) and lysed in RNA lysis buffer. The lysate was transferred to wells of the SV 96 binding plate. Samples were washed with RNA wash solution and treated with DNase. Total RNA was eluted with nuclease-free water from the binding plate.
After the reverse transcriptase reaction was completed, cDNA samples were used directly for real-time PCR to measure the response biomarker mRNA levels produced by the stimulated cells. […] All probes for target genes contained FAM dye, and probes for the internal control contained VIC®/MGB dye. Samples will be prepared and run in 96-well plates using a Real-Time PCR system (7500, Life Technologies). This system allows direct detection of PCR-product formation by measuring the increase in fluorescent emission continuously during the PCR reaction. A relative quantitation method was used to analyze changes in mouse IL-2, IL-4, IL-5, IL-10, IL-13, IFN-γ and TNF-α expression in GA-treated samples relative to the untreated control (enriched DCCM-1 treated) samples. The Real-Time PCR program was:
The levels of mouse cytokine amplicons (IL-2, IL-4, IL-5, IL-10, IL-13, mIFN-γ and TNF-α) were normalized to internal probe levels (GAPDH) from the same samples. The following equations were used to calculate the relative increase in response to GA stimulation compared to the control sample: ΔCT=CT_target−CT_reference ΔΔCT=−ΔCT_Treated−CT_VC

[1] = Group 1C: CD-1, GA-immunized, stimulation 10 μg/mL
[2] = Group 2C: BALB/cByJ, GA-immunized, stimulation 10 μg/mL
[3] = Group 3C: SJL/J, GA-immunized, stimulation 10 μg/mL

| Molecule | IL-4 mRNA Expression (Group 1C: CD-1, GA-immunized, stimulation 2.5 μg/mL) | IL-4 mRNA Expression (Group 2C: BALB/cByJ, GA-immunized, stimulation 2.5 μg/mL) | IL-4 mRNA Expression (Group 3C: SJL/J, GA-immunized, stimulation 2.5 μg/mL) | IL-4 mRNA Expression (Group 1C: CD-1, GA-immunized, stimulation 0.3 μg/mL) | IL-4 mRNA Expression (Group 1C: CD-1, GA-immunized, stimulation 1 μg/mL) | IL-4 mRNA Expression (Group 1C: CD-1, GA-immunized, stimulation 3 μg/mL) | IL-4 mRNA Expression [1] | IL-4 mRNA Expression (Group 2C: BALB/cByJ, GA-immunized, stimulation 0.3 μg/mL) | IL-4 mRNA Expression (Group 2C: BALB/cByJ, GA-immunized, stimulation 1 μg/mL) | IL-4 mRNA Expression (Group 2C: BALB/cByJ, GA-immunized, stimulation 3 μg/mL) | IL-4 mRNA Expression [2] | IL-4 mRNA Expression (Group 3C: SJL/J, GA-immunized, stimulation 0.3 μg/mL) | IL-4 mRNA Expression (Group 3C: SJL/J, GA-immunized, stimulation 1 μg/mL) | IL-4 mRNA Expression (Group 3C: SJL/J, GA-immunized, stimulation 3 μg/mL) | IL-4 mRNA Expression [3] |
| --- | --- | --- | --- | --- | --- | --- | --- | --- | --- | --- | --- | --- | --- | --- | --- |
| Concanavalin A [ConA, reference compound] | 23.8 fold change vs control | 27.2 fold change vs control | 29.2 fold change vs control |  |  |  |  |  |  |  |  |  |  |  |  |
| L-glutamic acid polymer with L-alanine, L-lysine and L-tyrosine, acetate (salt) [GA] |  |  |  | 1.6 fold change vs control | 4.7 fold change vs control | 6.1 fold change vs control | 11.2 fold change vs control | 4.2 fold change vs control | 6.5 fold change vs control | 10.1 fold change vs control | 9.8 fold change vs control | 2.0 fold change vs control | 5.2 fold change vs control | 10.0 fold change vs control | 15.3 fold change vs control |
| MBP: myelin basic protein, a negative control (protein, UniProt P02686 1-304, looked up) Myelin basic protein: MGNHAGKRELNAEKASTNSETNRGESEKKRNLGELSRTTSEDNEVFGEADANQNNGTSSQDTAVTDSKRTADPKNAWQDAHPADPGSRPHLIRLFSRDAPGREDNTFKDRPSESDELQTIQEDSAATSESLDVMASQKRPSQRHGSKYLATASTMDHARHGFLPRHRDTGILDSIGRFFGGDRGAPKRGSGKDSHHPARTAHYGSLPQKSHGRTQDENPVVHFFKNIVTPRTPPPSQGKGRGLSLSRFSWGAEGQRPGFGYGGRASDYKSAHKGFKGVDAQGTLSKIFKLGGRDSRSGSPMARR |  |  |  |  |  |  | 0.6 fold change vs control |  |  |  | 1.1 fold change vs control |  |  |  | 0.5 fold change vs control |

Source: US10344330B2, “Glatiramer acetate response biomarker mRNA potency assay” (Mylan Inc., priority 2013, dated 2019)
